Measured values from patent publication US20060069132A1, “Azolecarboxamide herbicides” (priority 2004, published 2006).

What was measured:
barnyardgrass [1] = test: Test B pre-/postemergence herbicide test; assay type: in vivo, Echinochloa crus-galli; settings: for Barnyardgrass plant response rating: postemergence, scale 0 (no effect) to 100 (complete control)
Outline: (§1)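 Herbicidal effect was judged by eye on a 0–100 scale after plants stood 13 to 15 days in the greenhouse following pre- or postemergence treatment with surfactant-containing formulations.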

Surinam grass = test: Test B pre-/postemergence herbicide test; assay type: in vivo, Urochloa decumbens; settings: for Surinam Grass plant response rating: postemergence
Outline: (§2)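 Visual rating, 0 (no effect) to 100 (complete control), versus untreated controls after 13–15 d in greenhouse. Pre- and postemergence applications (postemergence plants 2–18 cm, 1–4 leaves); flooded paddy arm at 2-leaf stage. Compounds in non-phytotoxic solvent plus surfactant.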

cocklebur = test: Test B pre-/postemergence herbicide test; assay type: in vivo, Xanthium strumarium; settings: for Cocklebur plant response rating: postemergence, scale 0 (no effect) to 100 (complete control)
Outline: as §1

corn = test: Test B pre-/postemergence herbicide test; assay type: in vivo, Zea mays; settings: for Corn plant response rating: postemergence
Outline: as §2

large crabgrass = test: Test B pre-/postemergence herbicide test; assay type: in vivo, Digitaria sanguinalis; settings: for Crabgrass, Large plant response rating: postemergence
Outline: as §2

giant foxtail = test: Test B pre-/postemergence herbicide test; assay type: in vivo, Setaria faberi; settings: for Foxtail, Giant plant response rating: postemergence
Outline: as §2

lambsquarters = test: Test B pre-/postemergence herbicide test; assay type: in vivo, Chenopodium album; settings: for Lambsquarters plant response rating: postemergence
Outline: as §2

morningglory = test: Test B pre-/postemergence herbicide test; assay type: in vivo, Ipomoea coccinea; settings: for Morningglory plant response rating: postemergence
Outline: as §1

pigweed = test: Test B pre-/postemergence herbicide test; assay type: in vivo, Amaranthus retroflexus; settings: for Pigweed plant response rating: postemergence
Outline: as §2

rice [2] = test: Test B pre-/postemergence herbicide test; assay type: in vivo, Oryza sativa; settings: 0 = no effect, 100 = complete control, preemergence
Outline: as §2

velvetleaf = test: Test B pre-/postemergence herbicide test; assay type: in vivo, Abutilon theophrasti; settings: for Velvetleaf plant response rating: postemergence
Outline: as §2

blackgrass = test: Test B postemergence herbicide test; assay type: in vivo, Alopecurus myosuroides; settings: postemergence, visual rating, scale 0 (no effect) to 100 (complete control)
Outline: (§3)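 Treated at 2-leaf (paddy) or 1–4-leaf, 2–18 cm (postemergence); greenhouse 13–15 d; visual score vs control, 0 none to 100 complete control; dash = not tested.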

wheat = test: Test B postemergence herbicide test; assay type: in vivo, Triticum aestivum; parameters: key to Wheat plant response rating: 0 = no effect, 100 = complete control; settings: postemergence
Outline: (§4)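 Formulated test chemicals went onto postemergence plants measuring 2 to 18 cm, at one to four leaves. For the paddy assay, species had reached two leaves. Scoring took place 13–15 days later by eye, relative to untreated plants, using 0 for no effect up to 100 for full control.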

wild oat = test: Test B postemergence herbicide test; assay type: in vivo, Avena fatua; settings: postemergence
Outline: as §4

rice [3] = test: Test B flooded paddy test; assay type: in vivo, Oryza sativa; settings: 1000 g ai/ha, scale 0 to 100 (0 no effect, 100 complete control)
Outline: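 Read-out: visual comparison with controls, scored 0 to 100, where 100 means complete control and 0 no effect. Formulated chemicals were applied postemergence to plants 2–18 cm tall (1- to 4-leaf), or to flooded-paddy plants at the 2-leaf stage, then held 13 to 15 days under glass.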

[4] = tested on: small flower umbrella sedge; test: Test B flooded paddy test; assay type: in vivo, Cyperus difformis; settings: 1000 g ai/ha, scale 0 to 100 (0 no effect, 100 complete control)
Outline: as §3

ducksalad [5] = test: Test B flooded paddy test; assay type: in vivo, Heteranthera limosa; settings: 1000 g ai/ha, scale 0 to 100 (0 no effect, 100 complete control)
Outline: as §3

barnyardgrass [6] = test: Test B flooded paddy test; assay type: in vivo, Echinochloa crus-galli; settings: 1000 g ai/ha, scale 0 to 100 (0 no effect, 100 complete control)
Outline: as §3

rice [7] = test: Test C flooded paddy test; assay type: in vivo, Oryza sativa
Outline: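 Plants were grown to the 1- to 4-leaf stage (2–18 cm) and then treated postemergence, or grown to the 2-leaf stage for the flooded paddy test. They were held in a greenhouse for 12 to 14 days and then scored by eye against controls, where 0 is no effect and 100 is complete control.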

[8] = tested on: smallflower umbrella sedge; test: Test C flooded paddy test; assay type: in vivo, Cyperus difformis
ducksalad [9] = test: Test C flooded paddy test; assay type: in vivo, Heteranthera limosa
barnyardgrass [10] = test: Test C flooded paddy test; assay type: in vivo, Echinochloa crus-galli
Outline: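 Greenhouse test with a 12–14 day hold after application and visual comparison with controls. Emerged plants were 1- to 4-leaf stage (2–18 cm) when sprayed postemergence, and the paddy barnyardgrass was at 2 leaves under flooded conditions. 100 = complete control.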

[11] = 125 g ai/ha, 0 = no effect, 100 = complete control, preemergence
[12] = 500 g ai/ha, visual rating, 0 = no effect, 100 = complete control, preemergence
[13] = 125 g ai/ha, visual rating, scale 0 (no effect) to 100 (complete control)
[14] = 500 g ai/ha, scale 0 to 100, 0 is no effect, 100 is complete control
[15] = 125 g ai/ha, scale 0 to 100 (0 no effect, 100 complete control)
[16] = 250 g ai/ha, scale of 0 to 100, 0 is no effect, 100 is complete control
[17] = 500 g ai/ha, visual rating after 12 to 14 days, scale 0 to 100 (0 no effect, 100 complete control)

## CCn1nc(C(C)(C)C)cc1C(=O)Nc1cncc(C(=O)N(C)C)c1 [Compound 258]
Barnyardgrass [1]; [11]
  Barnyardgrass plant response rating (0 to 100 scale): 70
Barnyardgrass [1]; [12]
  Plant response rating, Barnyardgrass: 90
Barnyardgrass [1]; 125 g ai/ha, visual rating
  Barnyardgrass plant response rating: 0
Barnyardgrass [1]; 500 g ai/ha, visual rating
  Barnyardgrass plant response rating: 0
Surinam grass; [11]
  Surinam Grass plant response rating (0 to 100 scale): 0
Surinam grass; [12]
  Plant response rating, Surinam Grass: 30
Surinam grass; [13]
  Surinam Grass plant response rating: 0
Surinam grass; [14]
  Surinam Grass plant response rating: 10
cocklebur; [11]
  Cocklebur plant response rating (0 to 100 scale): 0
cocklebur; [12]
  Plant response rating, Cocklebur: 0
cocklebur; 125 g ai/ha, visual rating
  Cocklebur plant response rating: 20
cocklebur; 500 g ai/ha, visual rating
  Cocklebur plant response rating: 30
corn; [11]
  Corn plant response rating (0 to 100 scale): 0
corn; [12]
  Plant response rating, Corn: 0
corn; [13]
  Corn plant response rating: 0
corn; [14]
  Corn plant response rating: 10
Large crabgrass; [11]
  Crabgrass, Large plant response rating (0 to 100 scale): 10
Large crabgrass; [12]
  Plant response rating, Crabgrass, Large: 50
Large crabgrass; [13]
  Crabgrass, Large plant response rating: 0
Large crabgrass; [14]
  Crabgrass, Large plant response rating: 0
Giant foxtail; [11]
  Foxtail, Giant plant response rating (0 to 100 scale): 0
Giant foxtail; [12]
  Plant response rating, Foxtail, Giant: 20
Giant foxtail; [13]
  Foxtail, Giant plant response rating: 0
Giant foxtail; [14]
  Foxtail, Giant plant response rating: 0
lambsquarters; [12]
  Plant response rating, Lambsquarters: 100
lambsquarters; [13]
  Lambsquarters plant response rating: 30
lambsquarters; [14]
  Lambsquarters plant response rating: 70
morningglory; [11]
  Morningglory plant response rating (0 to 100 scale): 0
morningglory; [12]
  Plant response rating, Morningglory: 10
morningglory; [13]
  Morningglory plant response rating: 0
morningglory; [14]
  Morningglory plant response rating: 10
pigweed; [11]
  Pigweed plant response rating (0 to 100 scale): 0
pigweed; [12]
  Plant response rating, Pigweed: 100
pigweed; [13]
  Pigweed plant response rating: 50
pigweed; [14]
  Pigweed plant response rating: 60
Rice [2]; 125 g ai/ha
  Rice plant response rating (0 to 100 scale): 20
Rice [2]; 500 g ai/ha, visual rating
  Plant response rating, Rice: 90
velvetleaf; [11]
  Velvetleaf plant response rating (0 to 100 scale): 0
velvetleaf; [12]
  Plant response rating, Velvetleaf: 60
velvetleaf; [13]
  Velvetleaf plant response rating: 0
velvetleaf; [14]
  Velvetleaf plant response rating: 0
blackgrass; 125 g ai/ha
  Blackgrass plant response rating: 10
blackgrass; 500 g ai/ha
  Blackgrass plant response rating: 10
wheat; [13]
  Wheat plant response rating: 20
wheat; [14]
  Wheat plant response rating: 20
Wild oat; [13]
  Oat, Wild plant response rating: 20
Wild oat; [14]
  Oat, Wild plant response rating: 30
Rice [3]
  Rice plant response rating: 80
[4]
  Sedge, Umbrella plant response rating: 70
Ducksalad [5]
  Ducksalad plant response rating: 90
Barnyardgrass [6]
  Barnyardgrass plant response rating: 70
Rice [7]; 62 g ai/ha, scale 0 to 100
  Rice plant response rating: 0
Rice [7]; [15]
  Rice plant response rating: 0
Rice [7]; [16]
  Rice plant response rating: 5
Rice [7]; [17]
  Plant response rating, Rice: 70
[8]; 62 g ai/ha, scale 0 to 100
  Sedge, Umbrella plant response rating: 0
[8]; [15]
  Sedge, Umbrella plant response rating: 20
[8]; [16]
  Sedge, Umbrella plant response rating: 70
[8]; [17]
  Plant response rating, Sedge, Umbrella: 80
Ducksalad [9]; 62 g ai/ha, scale 0 to 100
  Ducksalad plant response rating: 15
Ducksalad [9]; [15]
  Ducksalad plant response rating: 45
Ducksalad [9]; [16]
  Ducksalad plant response rating: 70
Ducksalad [9]; [17]
  Plant response rating, Ducksalad: 90
Barnyardgrass [10]; 62 g ai/ha, scale 0 to 100 (0 no effect, 100 complete control)
  Barnyardgrass plant response rating: 0
Barnyardgrass [10]; [15]
  Barnyardgrass plant response rating: 0
Barnyardgrass [10]; [16]
  Barnyardgrass plant response rating: 15
Barnyardgrass [10]; [17]
  Plant response rating, Barnyardgrass: 45
